In patent US10131670B2, “Bicyclic heteroaryl derivatives as CFTR potentiators” (CYSTIC FIBROSIS FOUNDATION THERAPEUTICS, INC., priority 2016, dated 2018):
Structures can show the parent of a compound that is named as a salt.

What was measured:
CFTR = CFTR (Homo sapiens, UniProt P13569); assay: Ussing Chamber Electrophysiology Assay of CFTR Potentiation in CF Bronchial Epithelial Cells; assay type: cell-based; details: primary CF hBE cells, short-circuit current, scaled to DMSO (0%) and positive control potentiator (100%)
Description: Ussing Chamber Electrophysiology Assay of CFTR Potentiation in CF Bronchial Epithelial Cells
Primary cystic fibrosis human bronchial epithelial (CF hBE) cells were expanded and cultured according to published methods (Neuberger et al., Ch. 4 of Cystic Fibrosis, Methods in Molecular Biology vol. 741, pp. 39-54 (2011)). Well-differentiated cells (>30 days at air/liquid interface) on Snapwell filters (Corning Costar, cat. no. 3801) were mounted in Ussing chambers (Physiologic Instruments, Inc., San Diego, Calif.). F508del/F508del cultures were assayed at 27° C. and G551D/F508del cells were assayed at 35° C. HEPES buffered physiological saline (composition (in mM): 137 NaCl, 4 KCl, 1 MgCl2, 1.8 CaCl2, 10 HEPES Na) was used in both apical and basolateral chambers. Chambers were bubbled with air to promote mixing and the voltage was clamped to zero. Amiloride (30 uM), forskolin (10 uM), test compound (4 increasing concentrations), and CFTRinh-172 (20 uM) were added sequentially with 20-25 minutes between additions. Short-circuit currents were acquired and analyzed using LabScribe2. Test compound responses were scaled relative to responses for DMSO (0%) and the maximal response of a positive control potentiator (100%).

F508del V470 CFTR = F508del V470 CFTR (Homo sapiens, UniProt P13569, DEL508-508); assay: FRT Ion Flux Assay of F508del CFTR Potentiation; assay type: cell-based; details: FRT cells expressing F508del V470 CFTR and halide-sensitive YFP, forskolin 20 uM, 30 min
Chain of F508del V470 CFTR (P13569 with tags, fused parts or gaps DEL508-508): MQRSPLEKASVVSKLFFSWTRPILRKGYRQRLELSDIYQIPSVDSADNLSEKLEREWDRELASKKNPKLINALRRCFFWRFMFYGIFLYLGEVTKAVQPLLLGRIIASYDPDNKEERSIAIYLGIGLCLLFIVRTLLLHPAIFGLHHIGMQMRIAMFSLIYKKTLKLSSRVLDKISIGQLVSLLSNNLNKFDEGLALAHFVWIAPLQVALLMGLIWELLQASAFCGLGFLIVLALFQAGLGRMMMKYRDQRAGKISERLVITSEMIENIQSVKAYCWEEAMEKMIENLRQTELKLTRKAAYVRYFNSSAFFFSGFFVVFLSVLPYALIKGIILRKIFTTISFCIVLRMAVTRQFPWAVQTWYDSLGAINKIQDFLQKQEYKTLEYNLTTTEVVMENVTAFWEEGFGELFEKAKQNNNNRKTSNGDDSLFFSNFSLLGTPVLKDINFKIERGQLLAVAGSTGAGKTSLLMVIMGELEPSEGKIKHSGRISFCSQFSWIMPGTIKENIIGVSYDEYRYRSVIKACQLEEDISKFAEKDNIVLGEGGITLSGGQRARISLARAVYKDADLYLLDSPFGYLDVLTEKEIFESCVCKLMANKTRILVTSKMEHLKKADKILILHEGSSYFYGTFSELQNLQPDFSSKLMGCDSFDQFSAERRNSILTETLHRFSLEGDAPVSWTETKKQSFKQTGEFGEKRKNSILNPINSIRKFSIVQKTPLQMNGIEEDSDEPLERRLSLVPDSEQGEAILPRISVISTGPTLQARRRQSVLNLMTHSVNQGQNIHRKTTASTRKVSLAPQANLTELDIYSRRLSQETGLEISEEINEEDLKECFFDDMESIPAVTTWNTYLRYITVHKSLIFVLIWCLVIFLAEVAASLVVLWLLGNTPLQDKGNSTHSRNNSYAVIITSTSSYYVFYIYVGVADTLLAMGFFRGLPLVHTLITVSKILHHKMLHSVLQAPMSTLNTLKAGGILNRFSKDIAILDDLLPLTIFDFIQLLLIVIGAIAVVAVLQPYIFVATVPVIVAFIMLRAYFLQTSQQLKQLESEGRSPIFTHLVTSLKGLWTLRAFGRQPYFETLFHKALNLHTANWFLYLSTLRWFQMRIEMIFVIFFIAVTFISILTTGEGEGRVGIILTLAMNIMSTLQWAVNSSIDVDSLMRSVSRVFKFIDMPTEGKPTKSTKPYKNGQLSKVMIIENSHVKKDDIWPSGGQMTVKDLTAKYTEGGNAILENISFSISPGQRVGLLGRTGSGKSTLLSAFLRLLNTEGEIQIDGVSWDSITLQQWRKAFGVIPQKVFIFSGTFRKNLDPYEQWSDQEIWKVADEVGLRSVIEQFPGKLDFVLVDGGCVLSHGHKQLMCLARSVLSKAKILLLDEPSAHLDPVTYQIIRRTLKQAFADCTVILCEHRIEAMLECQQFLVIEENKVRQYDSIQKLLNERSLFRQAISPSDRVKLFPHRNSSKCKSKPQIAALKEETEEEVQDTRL
Procedure: FRT Ion Flux Assay of F508del CFTR Potentiation
Fischer rat thyroid (FRT) cell lines stably expressing recombinant F508del V470 CFTR and halide-sensitive yellow fluorescent protein (Pedemonte et al., J. Clin. Invest. 115(9) 2564-71 (2005)) were seeded at 25,000 cells/well in 50 uL/well of culture medium into black-walled, clear bottom tissue-culture-treated 384-well plates (Corning, cat. no. 3712). After one day, the cells were pre-incubated at 27° C./5% CO2 for 16-24 hours. The cells were then washed with dPBS and treated with forskolin (20 uM) and test compound for 30 min by addition of 20 uL of compound dilution buffer (dPBS containing forskolin and test compound). Plates were loaded into FLIPR384 fluorescence imaging plate reader (Molecular Devices). After an initial fluorescence reading, iodide buffer (25 uL) (composition (in mM): 137 NaI, 1.5 K2PO4, 8.1 NaH2PO4, 2.7 KCl, 0.5 MgCl2, 1 CaCl2) was added and a second fluorescence reading was made after approximately 21 seconds. Data treatment involved division of the second fluorescence reading by the initial fluorescence reading, then scaling of the resulting normalized endpoint fluorescence with respect to the responses for DMSO (0%) and a positive control potentiator (100%).

G551D = G551D (Homo sapiens, UniProt P13569, G551D); details: G551D patients; cited from earlier work
F508del = F508del (Homo sapiens (Human), UniProt P13569, DEL508-508); details: F508del homozygote patients; cited from earlier work
Chain of F508del (P13569 other isoform, or with tags, fused parts or gaps del F508-F508): as the sequence (P13569 with tags, fused parts or gaps DEL508-508) above

| Structure (SMILES) | EC50 (CFTR) [nM] | EC50 (F508del V470 CFTR) [nM] | percent predicted FEV1 increased (G551D) | improvement with monotherapy (F508del) |
| --- | --- | --- | --- | --- |
| CCC(c1cn(-c2ccccc2F)nn1)c1cc(-c2cncnc2OC)c2c(N)ncnn12 (single isomer, unassigned) [Example 65, 7-{1-[1-(2-fluorophenyl)-1H-1,2,3-triazol-4-yl]propyl}-5-(4-methoxypyrimidin-5-yl)pyrrolo[2,1-f][1,2,4]triazin-4-amine] | 10.4 | 14 |  |  |
| CCC(c1cn(-c2ccccc2F)nn1)c1cc(-c2cncnc2OC)c2c(N)ncnn12 (single isomer, unassigned) [Example 66, 7-{1-[1-(2-fluorophenyl)-1H-1,2,3-triazol-4-yl]propyl}-5-(4-methoxypyrimidin-5-yl)pyrrolo[2,1-f][1,2,4]triazin-4-amine] | 123 | 524 |  |  |
| CC(O)(c1cn(-c2ccccc2F)nn1)c1cc(-c2cnc(C(F)(F)F)nc2)c2c(N)ncnn12 (single isomer, unassigned) [Example 67, 1-{4-amino-5-[2-(trifluoromethyl)pyrimidin-5-yl]pyrrolo[2,1-f][1,2,4]triazin-7-yl}-1-[1-(2-fluorophenyl)-1H-1,2,3-triazol-4-yl]ethanol] | 147 | 50.5 |  |  |
| CCC(c1cnn(-c2ccccc2F)c1)n1nc(-c2cnc(C(F)(F)F)nc2)c2c(N)ncnc21 (single isomer, unassigned) [Example 87, 1-{1-[1-(2-fluorophenyl)-1H-pyrazol-4-yl]propyl}-3-[2-(trifluoromethyl)pyrimidin-5-yl]-1H-pyrazolo[3,4-d]pyrimidin-4-amine] | 1.53 | 4.76 |  |  |
| CCC(c1cnn(-c2ccccc2F)c1)n1nc(-c2cnc(C(F)(F)F)nc2)c2c(N)ncnc21 (single isomer, unassigned) [Example 88, 1-{1-[1-(2-fluorophenyl)-1H-pyrazol-4-yl]propyl}-3-[2-(trifluoromethyl)pyrimidin-5-yl]-1H-pyrazolo[3,4-d]pyrimidin-4-amine] | 31 | 78.8 |  |  |
| CCC(c1cn(-c2ccccc2F)nn1)n1nc(-c2cnc(C(F)(F)F)nc2)c2c(N)ncnc21 (single isomer, unassigned) [Example 89, 1-{1-[1-(2-fluorophenyl)-1H-1,2,3-triazol-4-yl]propyl}-3-[2-(trifluoromethyl)pyrimidin-5-yl]-1H-pyrazolo[3,4-d]pyrimidin-4-amine] | 189 | 219 |  |  |
| CCC(c1cn(-c2ccccc2F)nn1)n1nc(-c2cnc(C(F)(F)F)nc2)c2c(N)ncnc21 (single isomer, unassigned) [Example 90, 1-{1-[1-(2-fluorophenyl)-1H-1,2,3-triazol-4-yl]propyl}-3-[2-(trifluoromethyl)pyrimidin-5-yl]-1H-pyrazolo[3,4-d]pyrimidin-4-amine] | 31.5 | 31.8 |  |  |
| CCC(c1cn(-c2ccccc2)nn1)n1nc(-c2cnc(C(F)(F)F)nc2)c2c(N)ncnc21 (single isomer, unassigned) [Example 94, 1-[1-(1-phenyl-1H-1,2,3-triazol-4-yl)propyl]-3-[2-(trifluoromethyl)pyrimidin-5-yl]-1H-pyrazolo[3,4-d]pyrimidin-4-amine] | 74.4 | 50.3 |  |  |
| CCC(c1cn(-c2ccccc2)nn1)n1nc(-c2cnc(C(F)(F)F)nc2)c2c(N)ncnc21 (single isomer, unassigned) [Example 95, 1-[1-(1-phenyl-1H-1,2,3-triazol-4-yl)propyl]-3-[2-(trifluoromethyl)pyrimidin-5-yl]-1H-pyrazolo[3,4-d]pyrimidin-4-amine] | 188 | 349 |  |  |
| CC(c1cn(-c2cc(F)ccc2F)nn1)c1cc(-c2cnc(C(F)(F)F)nc2)c2c(N)ncnn12 (single isomer, unassigned) [Example 98, 7-{1-[1-(2,5-difluorophenyl)-1H-1,2,3-triazol-4-yl]ethyl}-5-[2-(trifluoromethyl)pyrimidin-5-yl]pyrrolo[2,1-f][1,2,4]triazin-4-amine] | 19.8 | 26 |  |  |
| CCC(c1cn(-c2ccc(F)cc2F)nn1)n1nc(-c2cnc(C(F)(F)F)nc2)c2c(N)ncnc21 (single isomer, unassigned) [Example 99, 1-{1-[1-(2,4-difluorophenyl)-1H-1,2,3-triazol-4-yl]propyl}-3-[2-(trifluoromethyl)pyrimidin-5-yl]-1H-pyrazolo[3,4-d]pyrimidin-4-amine] | 29.2 | 37.2 |  |  |
| N#Cc1c(-c2cnc(C(F)(F)F)nc2)c2c(N)ncnn2c1Cc1cn(-c2ccccc2F)nn1 [Example 22, 4-amino-7-{[1-(2-fluorophenyl)-1H-1,2,3-triazol-4-yl]methyl}-5-[2-(trifluoromethyl)pyrimidin-5-yl]pyrrolo[2,1-f][1,2,4]triazine-6-carbonitrile] | 27.1 | 23.3 |  |  |
| CC(c1cn(-c2ccc(F)cc2F)nn1)c1c(C#N)c(-c2cnc(C(F)(F)F)nc2)c2c(N)ncnn12 (stereo not shown) [Example 24, 4-amino-7-{1-[1-(2,4-difluorophenyl)-1H-1,2,3-triazol-4-yl]ethyl}-5-[2-(trifluoromethyl)pyrimidin-5-yl]pyrrolo[2,1-f][1,2,4]triazine-6-carbonitrile] | 20.9 | 28.7 |  |  |
| N#Cc1c(-c2cnc(C(F)(F)F)nc2)c2c(N)ncnn2c1Cc1cnn(-c2ccccc2F)c1 [Example 30, 4-amino-7-{[1-(2-fluorophenyl)-1H-pyrazol-4-yl]methyl}-5-[2-(trifluoromethyl)pyrimidin-5-yl]pyrrolo[2,1-f][1,2,4]triazine-6-carbonitrile] | 0.86 | 0.57 |  |  |
| N#Cc1c(-c2cnc(C(F)F)nc2)c2c(N)ncnn2c1Cc1cnn(-c2ccccc2F)c1 [Example 31, 4-amino-5-[2-(difluoromethyl)pyrimidin-5-yl]-7-{[1-(2-fluorophenyl)-1H-pyrazol-4-yl]methyl}pyrrolo[2,1-f][1,2,4]triazine-6-carbonitrile] | 1.05 | 0.41 |  |  |
| N#Cc1c(-c2cnc(C(F)(F)F)nc2)c2c(N)ncnn2c1Cc1cc(-c2ccccc2F)no1 [Example 35, 4-amino-7-{[3-(2-fluorophenyl)-1,2-oxazol-5-yl]methyl}-5-[2-(trifluoromethyl)pyrimidin-5-yl]pyrrolo[2,1-f][1,2,4]triazine-6-carbonitrile] | 4 | 4.65 |  |  |
| CCC(c1cn(-c2ccccc2F)nn1)c1cc(-c2cnc(C(F)(F)F)nc2)c2c(N)ncnn12 (stereo not shown) [Example 82, 7-{1-[1-(2-fluorophenyl)-1H-1,2,3-triazol-4-yl]propyl}-5-[2-(trifluoromethyl)pyrimidin-5-yl]pyrrolo[2,1-f][1,2,4]triazin-4-amine] | 4.93 | 5.83 |  |  |
| CCC(c1cn(-c2ccccc2F)nn1)c1cc(-c2cncnc2OC)c2c(N)ncnn12 (stereo not shown) [Example 83, 7-{1-[1-(2-fluorophenyl)-1H-1,2,3-triazol-4-yl]propyl}-5-(4-methoxypyrimidin-5-yl)pyrrolo[2,1-f][1,2,4]triazin-4-amine] | 16 | 18.4 |  |  |
| Nc1ncnn2c(Cc3cn(-c4ccccc4F)nn3)nc(-c3ccc(Cl)cc3)c12 [Example 93, 5-(4-Chlorophenyl)-7-{[1-(2-fluorophenyl)-1H-1,2,3-triazol-4-yl]methyl}imidazo[5,1-f][1,2,4]triazin-4-amine trifluoroacetate] | 116 | 54.4 |  |  |
| CC(C)(C)c1cc(C(C)(C)C)c(NC(=O)c2c[nH]c3ccccc3c2=O)cc1O [Kalydeco®, ivacaftor] |  |  | 10-13% | did not lead to any appreciable improvement |
